Where a SMILES comes first, the peptide text is derived from it. [ ]: non-standard residue; d: D form. The star is where a group is joined. Asu = N[C@@H](CCCCCC(=O)O)C(=O)O; dAhp(2) = CCCCC[C@@H](N)C(=O)O; Ahp(2) = CCCCC[C@H](N)C(=O)O; NHOH = ON*
How the values were obtained:
[1] = biological target: T1, Histone deacetylase 4 (Homo sapiens, UniProt P56524)
[2] = biological target: T2, Protein deacetylase HDAC6 (Homo sapiens, UniProt Q9UBN7); test: Inhibition of HDAC6
T2 sequence (Q9UBN7 whole entry): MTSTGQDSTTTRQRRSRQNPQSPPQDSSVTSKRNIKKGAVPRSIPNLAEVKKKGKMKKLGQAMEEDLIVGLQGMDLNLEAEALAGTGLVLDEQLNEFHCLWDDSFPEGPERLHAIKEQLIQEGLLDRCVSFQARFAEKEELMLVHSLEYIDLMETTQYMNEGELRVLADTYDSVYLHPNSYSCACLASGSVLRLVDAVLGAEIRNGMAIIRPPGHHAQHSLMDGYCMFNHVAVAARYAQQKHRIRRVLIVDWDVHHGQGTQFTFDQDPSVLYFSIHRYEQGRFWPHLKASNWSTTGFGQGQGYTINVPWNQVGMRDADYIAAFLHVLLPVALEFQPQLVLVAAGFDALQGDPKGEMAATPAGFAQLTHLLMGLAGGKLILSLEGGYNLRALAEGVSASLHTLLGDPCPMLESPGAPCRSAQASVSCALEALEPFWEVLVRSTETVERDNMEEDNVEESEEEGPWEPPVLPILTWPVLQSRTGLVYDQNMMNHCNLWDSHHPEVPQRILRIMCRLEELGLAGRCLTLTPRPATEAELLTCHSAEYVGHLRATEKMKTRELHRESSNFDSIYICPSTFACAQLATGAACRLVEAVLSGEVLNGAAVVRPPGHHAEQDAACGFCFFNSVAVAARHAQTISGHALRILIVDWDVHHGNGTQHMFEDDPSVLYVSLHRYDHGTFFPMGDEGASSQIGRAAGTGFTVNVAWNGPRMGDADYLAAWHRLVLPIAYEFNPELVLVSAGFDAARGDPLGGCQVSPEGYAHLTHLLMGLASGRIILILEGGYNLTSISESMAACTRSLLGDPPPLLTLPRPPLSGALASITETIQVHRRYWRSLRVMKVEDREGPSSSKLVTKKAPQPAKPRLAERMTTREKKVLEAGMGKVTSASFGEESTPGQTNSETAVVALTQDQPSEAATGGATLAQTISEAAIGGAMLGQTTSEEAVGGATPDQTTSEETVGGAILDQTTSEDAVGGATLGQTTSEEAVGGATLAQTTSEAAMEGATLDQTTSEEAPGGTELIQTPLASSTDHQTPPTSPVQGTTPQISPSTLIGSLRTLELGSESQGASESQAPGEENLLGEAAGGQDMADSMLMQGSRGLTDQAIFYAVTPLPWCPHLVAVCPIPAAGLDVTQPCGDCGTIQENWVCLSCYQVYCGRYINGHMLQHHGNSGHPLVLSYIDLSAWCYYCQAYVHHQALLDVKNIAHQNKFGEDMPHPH

[3] = Selectivity ratio, IC50 for HDAC6 to IC50 for HDAC4
[4] = biological target: T1, Histone deacetylase 4; test: Inhibition of HDAC4
[5] = biological target: Histone deacetylase 1 (Homo sapiens, UniProt Q13547); test: Inhibition of HDAC1
Chain of Histone deacetylase 1 (Q13547 whole entry): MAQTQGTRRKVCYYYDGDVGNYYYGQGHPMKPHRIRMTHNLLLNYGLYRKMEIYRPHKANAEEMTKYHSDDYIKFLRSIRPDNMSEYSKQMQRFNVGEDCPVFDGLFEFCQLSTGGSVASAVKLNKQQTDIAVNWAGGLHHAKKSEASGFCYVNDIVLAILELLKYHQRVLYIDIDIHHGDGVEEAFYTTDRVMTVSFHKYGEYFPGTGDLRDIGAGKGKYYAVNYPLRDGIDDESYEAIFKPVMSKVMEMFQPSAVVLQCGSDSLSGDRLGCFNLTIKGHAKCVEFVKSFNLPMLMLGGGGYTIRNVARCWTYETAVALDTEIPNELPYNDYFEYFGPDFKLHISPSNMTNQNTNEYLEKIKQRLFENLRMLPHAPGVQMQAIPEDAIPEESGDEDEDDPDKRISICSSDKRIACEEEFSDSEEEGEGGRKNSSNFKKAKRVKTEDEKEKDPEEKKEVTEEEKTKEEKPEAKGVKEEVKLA

T1 sequence (P56524 whole entry): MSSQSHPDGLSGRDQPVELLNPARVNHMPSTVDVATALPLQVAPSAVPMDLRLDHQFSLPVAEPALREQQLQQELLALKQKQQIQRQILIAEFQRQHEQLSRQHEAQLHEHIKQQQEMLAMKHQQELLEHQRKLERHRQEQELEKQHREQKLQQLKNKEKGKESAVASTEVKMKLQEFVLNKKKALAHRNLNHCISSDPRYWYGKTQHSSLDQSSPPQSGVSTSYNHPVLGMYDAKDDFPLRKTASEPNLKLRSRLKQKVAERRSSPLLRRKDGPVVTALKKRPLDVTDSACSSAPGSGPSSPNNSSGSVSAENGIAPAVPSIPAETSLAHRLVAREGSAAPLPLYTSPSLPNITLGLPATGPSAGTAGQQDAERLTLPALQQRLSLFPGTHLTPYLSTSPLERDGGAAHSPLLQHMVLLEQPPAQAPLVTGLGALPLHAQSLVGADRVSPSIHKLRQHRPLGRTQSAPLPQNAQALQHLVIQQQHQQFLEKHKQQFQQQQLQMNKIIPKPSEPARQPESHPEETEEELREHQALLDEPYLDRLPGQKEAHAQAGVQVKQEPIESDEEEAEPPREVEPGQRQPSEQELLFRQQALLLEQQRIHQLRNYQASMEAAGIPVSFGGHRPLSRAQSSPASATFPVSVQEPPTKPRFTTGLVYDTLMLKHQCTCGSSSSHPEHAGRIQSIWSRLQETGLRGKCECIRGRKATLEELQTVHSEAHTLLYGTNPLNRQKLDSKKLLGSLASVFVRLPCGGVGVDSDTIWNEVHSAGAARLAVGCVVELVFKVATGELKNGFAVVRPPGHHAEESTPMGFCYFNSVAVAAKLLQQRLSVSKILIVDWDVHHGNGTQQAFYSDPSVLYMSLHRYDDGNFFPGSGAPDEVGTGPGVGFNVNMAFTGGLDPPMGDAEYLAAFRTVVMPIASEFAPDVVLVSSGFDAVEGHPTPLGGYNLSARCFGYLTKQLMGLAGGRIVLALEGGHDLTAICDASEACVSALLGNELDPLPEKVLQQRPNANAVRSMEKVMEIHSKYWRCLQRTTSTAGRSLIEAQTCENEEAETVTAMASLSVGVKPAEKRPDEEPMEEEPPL

Row | EC1000 [1] [nM] | IC50 [2] [nM] | Ratio IC50 [3] | IC50 [4] [nM] | IC50 [5] [nM] | Structure (SMILES)
1 | 7.2 | 410 | 75 | 5.5 | 9.1 | O=C(CCCCC[C@@H]1NC(=O)[C@H]2CCCN2C(=O)[C@@H]2CCCCCCCCCC[C@@H](NC1=O)C(=O)N2)NO
2 | 2 | 240 | – | 5 | 13 | O=C(CCCCC[C@@H]1NC(=O)[C@H]2CCCN2C(=O)[C@@H]2CCCCCCCCCCCC[C@@H](NC1=O)C(=O)N2)NO
3 | 20 | – | – | – | – | CC(/C=C/C(=O)NO)=C\[C@@H](C)C(=O)c1ccc(N(C)C)cc1
4 | 13 | 340 | – | 12 | 25 | CCCCC[C@@H]1NC(=O)[C@@H](CCCCC)NC(=O)[C@H](CCCCCC(=O)NO)NC(=O)[C@H]2CCCN2C1=O (cyclo([Ahp(2)][dP][Asu](NHOH)[dAhp(2)]))
5 | 2.6 | 280 | – | 4.5 | 11 | O=C(CCCCC[C@@H]1NC(=O)[C@H]2CCCN2C(=O)[C@@H]2CCCCCCCCCCC[C@@H](NC1=O)C(=O)N2)NO
6 | 92 | 330 | – | 5.4 | 9.1 | O=C(CCCCC[C@@H]1NC(=O)[C@H]2CCCN2C(=O)[C@@H]2CCCCCCCCC[C@@H](NC1=O)C(=O)N2)NO
